The text below walks through data of patent publication US10660877B2 (BRISTOL-MYERS SQUIBB COMPANY, priority 2016, dated 2020).

The target in one assay is human TLR7 (Homo sapiens (Human), UniProt Q9NYK1). The experiment in a line: TLR7 inhibition reporter assay (HEK-Blue cells, SEAP reporter, gardiquimod stimulation). It is filed as cell-based. As to conditions: HEK-Blue cells overexpressing human TLR7, gardiquimod 7.5 μM.
The next assay addresses human TLR8 (Homo sapiens (Human), UniProt Q9NR97). The experiment in a line: TLR8 inhibition reporter assay (HEK-Blue cells, SEAP reporter, R848 stimulation). (In general: In a reporter assay the amount or activity of a reporter protein is the signal.)
In the next assay the target is human TLR9 (Homo sapiens (Human), UniProt Q9NR96). The experiment in a line: TLR9 inhibition reporter assay (HEK-Blue cells, SEAP reporter, ODN2006 stimulation).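 Also: compounds tested over 0.05 nM to 50 µM, 22 h incubation, inhibition taken as SEAP signal drop from agonist plus DMSO wells toward a known inhibitor control.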
The mark [1] stands for this setting: read-out: TLR8 IC50, HEK-Blue cells overexpressing human TLR8, R848 15.9 μM.
Where [2] appears, read: read-out: TLR9 IC50, HEK-Blue cells overexpressing human TLR9, ODN2006 5 nM.
Setting [3] is: TLR8 IC50, HEK-Blue cells overexpressing human TLR8, R848 15.9 μM.
Setting [4] is: TLR9 IC50, HEK-Blue cells overexpressing human TLR9, ODN2006 5 nM.

Structures are written as SMILES. Like-named read-outs stand apart in the source and are kept apart here.

human TLR8, sequence (Q9NR97 27-1041): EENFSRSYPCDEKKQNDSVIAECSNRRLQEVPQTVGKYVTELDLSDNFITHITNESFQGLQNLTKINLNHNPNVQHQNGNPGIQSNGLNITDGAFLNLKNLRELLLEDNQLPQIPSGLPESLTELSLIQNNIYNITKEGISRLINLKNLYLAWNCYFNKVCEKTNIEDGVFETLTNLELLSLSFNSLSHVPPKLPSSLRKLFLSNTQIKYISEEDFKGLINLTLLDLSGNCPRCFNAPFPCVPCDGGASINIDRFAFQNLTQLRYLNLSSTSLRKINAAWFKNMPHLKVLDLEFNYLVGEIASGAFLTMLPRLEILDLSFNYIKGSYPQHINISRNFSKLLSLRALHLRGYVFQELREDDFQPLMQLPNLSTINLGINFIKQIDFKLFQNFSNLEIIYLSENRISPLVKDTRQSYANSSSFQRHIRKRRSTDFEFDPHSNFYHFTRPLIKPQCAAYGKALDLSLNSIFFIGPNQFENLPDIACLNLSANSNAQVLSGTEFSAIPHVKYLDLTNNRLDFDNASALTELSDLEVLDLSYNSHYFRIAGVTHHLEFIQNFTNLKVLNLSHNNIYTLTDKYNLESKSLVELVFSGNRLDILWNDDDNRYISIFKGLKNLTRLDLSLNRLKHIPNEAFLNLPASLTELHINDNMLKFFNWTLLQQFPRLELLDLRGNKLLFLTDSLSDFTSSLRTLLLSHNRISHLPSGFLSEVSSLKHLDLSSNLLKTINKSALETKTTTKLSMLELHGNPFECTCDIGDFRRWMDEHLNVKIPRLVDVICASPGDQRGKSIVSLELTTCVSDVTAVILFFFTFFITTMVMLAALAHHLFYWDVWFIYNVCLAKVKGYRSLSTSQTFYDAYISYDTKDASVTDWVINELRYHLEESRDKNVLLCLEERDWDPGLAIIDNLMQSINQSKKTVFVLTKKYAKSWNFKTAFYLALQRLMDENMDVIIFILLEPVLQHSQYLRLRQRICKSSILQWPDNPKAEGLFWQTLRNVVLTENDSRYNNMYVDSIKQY
human TLR9, sequence (Q9NR96 26-1032): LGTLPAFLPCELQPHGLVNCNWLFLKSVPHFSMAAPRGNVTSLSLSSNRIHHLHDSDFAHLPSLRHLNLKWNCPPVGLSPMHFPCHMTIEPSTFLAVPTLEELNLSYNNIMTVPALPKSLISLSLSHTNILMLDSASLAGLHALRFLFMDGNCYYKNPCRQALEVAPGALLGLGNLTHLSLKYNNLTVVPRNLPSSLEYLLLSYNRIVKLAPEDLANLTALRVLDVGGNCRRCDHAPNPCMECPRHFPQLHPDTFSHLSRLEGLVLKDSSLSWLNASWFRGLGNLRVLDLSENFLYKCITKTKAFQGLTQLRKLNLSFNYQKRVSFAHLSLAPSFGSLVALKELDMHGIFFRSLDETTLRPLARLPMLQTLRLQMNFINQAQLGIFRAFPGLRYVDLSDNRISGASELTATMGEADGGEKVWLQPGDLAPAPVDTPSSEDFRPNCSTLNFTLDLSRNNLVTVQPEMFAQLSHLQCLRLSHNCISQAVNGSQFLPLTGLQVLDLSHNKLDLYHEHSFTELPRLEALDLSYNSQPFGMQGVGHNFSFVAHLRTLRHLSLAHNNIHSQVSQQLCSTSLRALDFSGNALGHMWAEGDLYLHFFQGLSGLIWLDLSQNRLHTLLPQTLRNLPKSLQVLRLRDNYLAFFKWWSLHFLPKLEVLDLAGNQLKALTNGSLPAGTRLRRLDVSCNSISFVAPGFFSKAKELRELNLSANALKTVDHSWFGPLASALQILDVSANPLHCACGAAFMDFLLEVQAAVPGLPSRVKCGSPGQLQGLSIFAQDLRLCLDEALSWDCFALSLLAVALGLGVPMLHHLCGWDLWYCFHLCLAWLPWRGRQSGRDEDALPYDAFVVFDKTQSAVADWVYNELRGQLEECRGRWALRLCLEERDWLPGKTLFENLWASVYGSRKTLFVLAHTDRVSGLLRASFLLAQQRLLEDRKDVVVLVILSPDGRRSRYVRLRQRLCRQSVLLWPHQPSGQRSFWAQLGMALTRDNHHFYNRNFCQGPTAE
human TLR7, sequence (Q9NYK1 27-1049): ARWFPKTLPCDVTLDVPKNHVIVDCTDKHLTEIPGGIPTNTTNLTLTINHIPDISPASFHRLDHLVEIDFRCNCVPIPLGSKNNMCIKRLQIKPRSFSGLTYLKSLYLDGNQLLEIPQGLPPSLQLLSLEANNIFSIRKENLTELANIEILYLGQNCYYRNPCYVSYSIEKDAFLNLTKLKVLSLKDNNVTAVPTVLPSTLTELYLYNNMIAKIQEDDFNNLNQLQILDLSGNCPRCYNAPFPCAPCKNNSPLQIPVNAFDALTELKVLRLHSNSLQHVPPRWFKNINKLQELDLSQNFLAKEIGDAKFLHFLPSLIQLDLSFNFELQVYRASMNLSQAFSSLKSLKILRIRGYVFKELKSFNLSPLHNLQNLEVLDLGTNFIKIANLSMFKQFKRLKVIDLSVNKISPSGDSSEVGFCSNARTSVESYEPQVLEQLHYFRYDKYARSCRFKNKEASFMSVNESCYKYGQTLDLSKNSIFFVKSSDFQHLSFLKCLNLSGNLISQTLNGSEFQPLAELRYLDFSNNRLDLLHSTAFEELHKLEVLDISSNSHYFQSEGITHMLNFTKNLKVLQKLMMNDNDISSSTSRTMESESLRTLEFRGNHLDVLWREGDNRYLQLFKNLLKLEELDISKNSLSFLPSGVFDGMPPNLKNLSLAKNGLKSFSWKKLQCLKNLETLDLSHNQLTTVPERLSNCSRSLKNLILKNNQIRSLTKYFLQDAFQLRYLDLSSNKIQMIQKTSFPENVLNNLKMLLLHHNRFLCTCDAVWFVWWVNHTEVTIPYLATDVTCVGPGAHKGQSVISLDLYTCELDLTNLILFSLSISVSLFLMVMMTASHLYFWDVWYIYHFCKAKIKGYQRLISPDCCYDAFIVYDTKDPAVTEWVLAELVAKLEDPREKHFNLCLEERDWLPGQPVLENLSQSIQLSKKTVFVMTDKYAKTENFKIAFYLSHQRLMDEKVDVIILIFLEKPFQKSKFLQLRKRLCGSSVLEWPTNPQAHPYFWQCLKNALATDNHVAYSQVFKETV

Usually IC50 stands for the concentration that inhibits the measured activity by half. Turning to `Cc1cc(-c2[nH]c3ccc(C4CCN(C(=O)[C@@H]5C[C@H](F)CN5)CC4)cc3c2C(C)C)cc(C)n1` [Example 196, (4-(2-(2,6-dimethylpyridin-4-yl)-3-isopropyl-1H-indol-5-yl)piperidin-1-yl)((2S,4S)-4-fluoropyrrolidin-2-yl)methanone], the IC50 on human TLR7 came out at 1.2 nM; at human TLR8 (setting [1]) it was 16.2 nM; at human TLR9 (setting [2]), 195 nM.
The matching figures for `Cc1cc(-c2[nH]c3ccc(C4CCN(C(=O)C5(C)CCNCC5)CC4)cc3c2C(C)C)cc(C)n1` [Example 197, (4-(2-(2,6-dimethylpyridin-4-yl)-3-isopropyl-1H-indol-5-yl)piperidin-1-yl)(4-methylpiperidin-4-yl)methanone]: 2.8 nM, 23.9 nM and 322 nM.
Turning to `Cc1cc(-c2[nH]c3ccc(C4CCN(C(=O)C5CCOCC5)CC4)cc3c2C(C)C)cc(C)n1` [Example 198, (4-(2-(2,6-dimethylpyridin-4-yl)-3-isopropyl-1H-indol-5-yl)piperidin-1-yl)(tetrahydro-2H-pyran-4-yl)methanone], the IC50 on human TLR7 stood at 8.9 nM; at human TLR8 (setting [1]), 104 nM; at human TLR9 (setting [2]) it was 30800 nM.
The matching figures for `Cc1cc(-c2[nH]c3ccc(C4CCN(C(=O)C5CCOC5)CC4)cc3c2C(C)C)cc(C)n1` (stereo not drawn) [Example 199, (4-(2-(2,6-dimethylpyridin-4-yl)-3-isopropyl-1H-indol-5-yl)piperidin-1-yl)(tetrahydrofuran-3-yl)methanone]: 3.6 nM, 86.1 nM and 46600 nM.
The matching figures for `Cc1cc(-c2[nH]c3ccc(C4CCN(C(=O)C5CCOC(C(C)C)C5)CC4)cc3c2C(C)C)cc(C)n1` (stereo not drawn) [Example 200, (4-(2-(2,6-dimethylpyridin-4-yl)-3-isopropyl-1H-indol-5-yl)piperidin-1-yl)(2-isopropyltetrahydro-2H-pyran-4-yl) methanone]: 44.4 nM, 409 nM and 11200 nM.
For `Cc1cc(-c2[nH]c3ccc(C4CCN(C(=O)c5cscn5)CC4)cc3c2C(C)C)cc(C)n1` [Example 201, (4-(2-(2,6-dimethylpyridin-4-yl)-3-isopropyl-1H-indol-5-yl)piperidin-1-yl)(thiazol-4-yl)methanone] the same measures were 5 nM, 84.1 nM and 5500 nM.
Take `Cc1cc(-c2[nH]c3ccc(C4CCN(C(=O)c5ccon5)CC4)cc3c2C(C)C)cc(C)n1` [Example 203, (4-(2-(2,6-dimethylpyridin-4-yl)-3-isopropyl-1H-indol-5-yl)piperidin-1-yl)(isoxazol-3-yl)methanone]: the IC50 came to 2 nM on human TLR7, 113 nM on human TLR8 (setting [1]) and 3180 nM on human TLR9 (setting [2]).
For `CNC(=O)C(=O)N1CCC(c2ccc3[nH]c(-c4cc(C)nc(C)c4)c(C(C)C)c3c2)CC1` [Example 204, 2-(4-(2-(2,6-dimethylpyridin-4-yl)-3-isopropyl-1H-indol-5-yl)piperidin-1-yl)-N-methyl-2-oxoacetamide] the same measures were 5.7 nM, 62.9 nM and 17200 nM.
For `CNC(=O)C(=O)N1CCC(c2ccc3[nH]c(-c4cc(C)nc(C)c4)c(C(C)C)c3c2)CC1` [Example 205, 2-(4-(2-(2,6-dimethylpyridin-4-yl)-3-isopropyl-1H-indol-5-yl)piperidin-1-yl)-N-methyl-2-oxoacetamide] the same measures were 4.4 nM, 76.3 nM and 19200 nM.
Regarding `CCC(=O)N1CCC(c2ccc3[nH]c(-c4cc(C)nc(C)c4)c(C(C)C)c3c2)CC1` [Example 206, 1-(4-(2-(2,6-dimethylpyridin-4-yl)-3-isopropyl-1H-indol-5-yl)piperidin-1-yl)propan-1-one], the IC50 at human TLR7 was 5.4 nM; on human TLR8 (setting [1]), 100 nM; at human TLR9 (setting [2]), 41900 nM.
For `Cc1cc(-c2[nH]c3ccc(C4CCN(CC(=O)N5CCC[C@@H](O)C5)CC4)cc3c2C(C)C)cc(C)n1` [Example 209, (R)-2-(4-(2-(2,6-dimethylpyridin-4-yl)-3-isopropyl-1H-indol-5-yl)piperidin-1-yl)-1-(3-hydroxypiperidin-1-yl)ethan-1-one] the same measures were 3.5 nM, 13 nM and 604 nM.
For `Cc1cc(-c2[nH]c3ccc(C4CCN(CC(=O)N5CCC[C@H](O)C5)CC4)cc3c2C(C)C)cc(C)n1` [Example 210, (S)-2-(4-(2-(2,6-dimethylpyridin-4-yl)-3-isopropyl-1H-indol-5-yl)piperidin-1-yl)-1-(3-hydroxypiperidin-1-yl)ethan-1-one], the IC50 amounted to 2 nM on human TLR7, 6.2 nM against human TLR8 (setting [3]) and 225 nM on human TLR9 (setting [4]).
As to `Cc1cc(-c2[nH]c3ccc(C4CCN(CC(=O)N[C@H]5CC[C@H](O)CC5)CC4)cc3c2C(C)C)cc(C)n1` [Example 211, 2-(4-(2-(2,6-dimethylpyridin-4-yl)-3-isopropyl-1H-indol-5-yl)piperidin-1-yl)-N-((1r,4r)-4-hydroxycyclohexyl)acetamide], the IC50 came out at 1.1 nM against human TLR7, 4.2 nM on human TLR8 (setting [1]) and 245 nM at human TLR9 (setting [2]).
The matching figures for `Cc1cc(-c2[nH]c3ccc(C4CCN(CC(=O)NC5CC5)CC4)cc3c2C(C)C)cc(C)n1` [Example 212, N-cyclopropyl-2-(4-(2-(2,6-dimethylpyridin-4-yl)-3-isopropyl-1H-indol-5-yl)piperidin-1-yl)acetamide]: 3.1 nM, 6.5 nM and 648 nM.
The matching figures for `Cc1cc(-c2[nH]c3ccc(C4CCN(CC(=O)NC5CCC5)CC4)cc3c2C(C)C)cc(C)n1` [Example 213, N-cyclobutyl-2-(4-(2-(2,6-dimethylpyridin-4-yl)-3-isopropyl-1H-indol-5-yl)piperidin-1-yl) acetamide]: 7.1 nM, 13.8 nM and 331 nM.
For `Cc1cc(-c2[nH]c3ccc(C4CCN(CC(=O)NCC(F)(F)F)CC4)cc3c2C(C)C)cc(C)n1` [Example 214, 2-(4-(2-(2,6-dimethylpyridin-4-yl)-3-isopropyl-1H-indol-5-yl)piperidin-1-yl)-N-(2,2,2-trifluoroethyl)acetamide] the same measures were 6.2 nM, 12.8 nM and 1220 nM.
For `Cc1cc(-c2[nH]c3ccc(C4CCN(CC(=O)N5CC(F)(F)C5)CC4)cc3c2C(C)C)cc(C)n1` [Example 215, 1-(3,3-difluoroazetidin-1-yl)-2-(4-(2-(2,6-dimethylpyridin-4-yl)-3-isopropyl-1H-indol-5-yl)piperidin-1-yl)ethan-1-one], the results for the IC50 on human TLR7, at human TLR8 (setting [1]) and on human TLR9 (setting [2]) were 4.9 nM, 6 nM and 680 nM, respectively.
With `Cc1cc(-c2[nH]c3ccc(C4CCN(CC(=O)N5CCC(F)(F)C5)CC4)cc3c2C(C)C)cc(C)n1` [Example 216, 1-(3,3-difluoropyrrolidin-1-yl)-2-(4-(2-(2,6-dimethylpyridin-4-yl)-3-isopropyl-1H-indol-5-yl)piperidin-1-yl)ethan-1-one], the IC50 on human TLR7 amounted to 2.8 nM; at human TLR8 (setting [3]), 7 nM; on human TLR9 (setting [4]), 315 nM.
Regarding `Cc1cc(-c2[nH]c3ccc(C4CCN(CC(=O)NC(C)(C)C)CC4)cc3c2C(C)C)cc(C)n1` [Example 217, N-(tert-butyl)-2-(4-(2-(2,6-dimethylpyridin-4-yl)-3-isopropyl-1H-indol-5-yl)piperidin-1-yl)acetamide], the IC50 at human TLR7 was 6.2 nM; at human TLR8 (setting [1]), 25.8 nM; at human TLR9 (setting [2]), 1020 nM.
In the case of `Cc1cc(-c2[nH]c3ccc(C4CCN(CC(=O)NC(C)C)CC4)cc3c2C(C)C)cc(C)n1` [Example 218, 2-(4-(2-(2,6-dimethylpyridin-4-yl)-3-isopropyl-1H-indol-5-yl)piperidin-1-yl)-N-isopropylacetamide], the IC50 on human TLR7 turned out to be 4.9 nM; on human TLR8 (setting [1]), 10.5 nM; on human TLR9 (setting [2]), 949 nM.
Turning to `Cc1cc(-c2[nH]c3ccc(C4CCN(CC(=O)NCC(C)(C)C)CC4)cc3c2C(C)C)cc(C)n1` [Example 219, 2-(4-(2-(2,6-dimethylpyridin-4-yl)-3-isopropyl-1H-indol-5-yl)piperidin-1-yl)-N-neopentylacetamide], the IC50 at human TLR7 was 22.5 nM; against human TLR8 (setting [3]), 47.7 nM; on human TLR9 (setting [4]) it was 2250 nM.
Take `CCC(CC)NC(=O)CN1CCC(c2ccc3[nH]c(-c4cc(C)nc(C)c4)c(C(C)C)c3c2)CC1` [Example 220, 2-(4-(2-(2,6-dimethylpyridin-4-yl)-3-isopropyl-1H-indol-5-yl)piperidin-1-yl)-N-(pentan-3-yl)acetamide]: the IC50 was found to be 13.9 nM at human TLR7, 36 nM on human TLR8 (setting [1]) and 1300 nM on human TLR9 (setting [2]).
The matching figures for `Cc1cc(-c2[nH]c3ccc(C4CCN(CC(=O)NCC(C)C)CC4)cc3c2C(C)C)cc(C)n1` [Example 221, 2-(4-(2-(2,6-dimethylpyridin-4-yl)-3-isopropyl-1H-indol-5-yl)piperidin-1-yl)-N-isobutylacetamide]: 6.8 nM, 17.2 nM and 2010 nM.
For the molecule `Cc1cc(-c2[nH]c3ccc(C4CCN(CC(=O)NCCO)CC4)cc3c2C(C)C)cc(C)n1` [Example 222, 2-(4-(2-(2,6-dimethylpyridin-4-yl)-3-isopropyl-1H-indol-5-yl)piperidin-1-yl)-N-(2-hydroxyethyl)acetamide], the figures for the IC50 against human TLR7, at human TLR8 (setting [1]) and at human TLR9 (setting [2]) were 2.7 nM, 15.9 nM and 2240 nM, respectively.
